We go through four molecules from ChEMBL document CHEMBL3576796, “A Broad Anti-influenza Hybrid Small Molecule That Potently Disrupts the Interaction of Polymerase Acidic Protein-Basic Protein 1 (PA-PB1) Subunits” (J Med Chem, 2015).

This assay can be described thus: Antiviral activity against Influenza A virus A/Parma/24/09 (H1N1) (Oseltamivir-resistant) assessed as reduction in plaque formation after 48 hrs by plaque reduction assay. It counts as functional, Influenza A virus (A/Parma/24/2009(H1N1)). A general note: In a plaque reduction assay, fewer plaques than in the control indicate reduced infectivity or spread.
As usually defined, the EC50 is the concentration at which the effect is half-maximal. Regarding `Cc1cc(-c2ccccc2)nc2nc(C(=O)Nc3sc4c(c3C(N)=O)CCCCC4)nn12`, the concentration for a half-maximal effect (EC50) worked out at 5 µM.

Turning to `Cc1cc(-c2ccccc2)nc2nc(NC(=O)c3ccccc3)nn12`, the EC50 came out at 25 µM.

Turning to `Cc1cc(-c2ccccc2)n2nc(C(=O)Nc3sc4c(c3C(N)=O)CCCCC4)nc2n1`, the EC50 turned out to be 25 µM.

For the molecule `CCCOc1ccc(C(=O)Nc2nc3n(n2)C(c2ccccc2)C=C(C)N3)cc1` (centres undefined), the EC50 was found to be 49 µM.
